Data published in ChEMBL document CHEMBL1909599, “Synthesis and anti-HIV-1 activity of 4-substituted-7-(2'-deoxy-2'-fluoro-4'-azido-β-D-ribofuranosyl)pyrrolo[2,3-d]pyrimidine analogues” (Bioorg Med Chem Lett, 2011).

What follows are molecules tested on Human immunodeficiency virus 1 (assay: Antiviral activity against Human immunodeficiency virus 1 assessed as inhibition of viral replication by MTT assay).
Format: functional, organism-based

Row | Compound | EC50 [nM]
1 | [N-]=[N+]=N[C@]1(CO)O[C@@H](n2cc(F)c3c(N)ncnc32)[C@@H](F)[C@@H]1O | 5400
2 | Cc1cn([C@H]2C[C@H](N=[N+]=[N-])[C@@H](CO)O2)c(=O)[nH]c1=O [ZIDOVUDINE] | 84
3 | [N-]=[N+]=N[C@]1(CO)O[C@@H](n2ccc3c(N)ncnc32)[C@@H](F)[C@@H]1O | 500
4 | [N-]=[N+]=N[C@]1(CO)O[C@@H](n2ccc3c(O)ncnc32)[C@@H](F)[C@@H]1O | 13000
